According to patent US12492173B2, “Herbicidal substituted N-tetrazolyl aryl carboxamides” (Bayer Aktiengesellschaft, priority 2019, dated 2025):

Columns and labels:
Format in all cases: in vivo
Veronica persica = assay: Post-emergence herbicidal action, VERPE; set-up: key: % herbicidal action vs untreated; 100 = plants died, 0 = like control
How it was run: (§1)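 After sowing into sandy loam, plants grew 2 to 3 weeks under greenhouse conditions until one leaf, then got a spray of compound as aqueous suspension or emulsion. Roughly three weeks on, activity was estimated visually against untreated pots.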

Alopecurus myosuroides = assay: Post-emergence herbicidal action, ALOMY; set-up: key: % herbicidal action vs untreated; 100 = plants died, 0 = like control
How it was run: as §1

Amaranthus retroflexus = assay: Post-emergence herbicidal action, AMARE; set-up: key: % herbicidal action vs untreated; 100 = plants died, 0 = like control
How it was run: as §1

Abutilon theophrasti = assay: Post-emergence herbicidal action, ABUTH; set-up: key: % herbicidal action vs untreated; 100 = plants died, 0 = like control
How it was run: as §1

Pharbitis purpurea = assay: Post-emergence herbicidal action, PHBPU
How it was run: as §1

Viola tricolor = assay: Pre-emergence herbicidal action, VIOTR; set-up: key to Herbicidal action against VIOTR: % activity: 100 = plants have died, 0 = like control plants; conditions: for herbicidal action VIOTR / herbicidal activity VIOTR: dosage 320 g/ha; for herbicidal activity VIOTR: scored visually after 3 weeks vs untreated controls (100% = plants have died); for Herbicidal action against VIOTR: comparative experiment, 20 g of a.i./ha
How it was run: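 Percent damage, assessed visually after 3 weeks and referenced to untreated controls, reflects a pre-emergence treatment. Spray liquid equated to 600 to 800 l/ha with 0.2% wetting agent, applied to the covering soil over seeds in sandy loam.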

[1] = comparative experiment, post-emergence, 5 g of a.i./ha
[2] = comparative experiment, post-emergence, 20 g of a.i./ha

Structure (SMILES) | herbicidal action VERPE (Veronica persica; Dosage 80 g/ha) | herbicidal action AMARE (Amaranthus retroflexus; Dosage 80 g/ha) | herbicidal action ABUTH (Abutilon theophrasti; Dosage 80 g/ha) | herbicidal action PHBPU (Pharbitis purpurea; Dosage 80 g/ha) | herbicidal action VIOTR (Viola tricolor) [%] | herbicidal activity VIOTR (Viola tricolor) [%] | other results
Cc1ccc(C(=O)Nc2nnnn2C)c(Cl)c1C[S+](C)[O-] (racemic) [Example 1-288] | 100 | 100 | 90 | 90 | 90 | – | herbicidal action ALOMY (Alopecurus myosuroides; Dosage 80 g/ha): 80
CC[S+]([O-])Cc1c(C(F)(F)F)ccc(C(=O)Nc2nnnn2C)c1Cl (racemic) [Example 1-300] | – | – | – | – | – | 100 | herbicidal action VERPE (Veronica persica; post-emergence, dosage 80 g/ha): 100%; herbicidal action ALOMY (Alopecurus myosuroides; post-emergence, dosage 80 g/ha): 90%; herbicidal action AMARE (Amaranthus retroflexus; post-emergence, dosage 80 g/ha): 100%; herbicidal action ABUTH (Abutilon theophrasti; post-emergence, dosage 80 g/ha): 90%; herbicidal action PHBPU (Pharbitis purpurea; post-emergence, dosage 80 g/ha): 90%
Cn1nnnc1NC(=O)c1ccc(C(F)(F)F)c(C[S+]([O-])C2CC2)c1Cl (racemic) [Example 1-303] | – | – | – | – | – | 100 | herbicidal action VERPE (Veronica persica; post-emergence, dosage 80 g/ha): 100%; herbicidal action ALOMY (Alopecurus myosuroides; post-emergence, dosage 80 g/ha): 100%; herbicidal action AMARE (Amaranthus retroflexus; post-emergence, dosage 80 g/ha): 100%; herbicidal action ABUTH (Abutilon theophrasti; post-emergence, dosage 80 g/ha): 100%; herbicidal action PHBPU (Pharbitis purpurea; post-emergence, dosage 80 g/ha): 100%
COCC[S+]([O-])Cc1c(C(F)(F)F)ccc(C(=O)Nc2nnnn2C)c1Cl (racemic) [Example 1-306] | 90 | 100 | 90 | 90 | – | 100 | herbicidal action ALOMY (Alopecurus myosuroides; Dosage 80 g/ha): 90
Cn1nnnc1NC(=O)c1ccc(C(F)(F)F)c(C[S+]([O-])CC(F)(F)F)c1Cl (racemic) [Example 1-312] | – | – | – | – | – | 100 | herbicidal action VERPE (Veronica persica; post-emergence, dosage 80 g/ha): 90%; herbicidal action ALOMY (Alopecurus myosuroides; post-emergence, dosage 80 g/ha): 90%; herbicidal action AMARE (Amaranthus retroflexus; post-emergence, dosage 80 g/ha): 100%; herbicidal action ABUTH (Abutilon theophrasti; post-emergence, dosage 80 g/ha): 100%; herbicidal action PHBPU (Pharbitis purpurea; post-emergence, dosage 80 g/ha): 100%
Cn1nnnc1NC(=O)c1ccc(I)c(C[S+](C)[O-])c1Cl (racemic) [Example 1-363] | – | – | – | – | – | 100 | herbicidal action VERPE (Veronica persica; post-emergence, dosage 80 g/ha): 100%; herbicidal action ALOMY (Alopecurus myosuroides; post-emergence, dosage 80 g/ha): 90%; herbicidal action AMARE (Amaranthus retroflexus; post-emergence, dosage 80 g/ha): 100%; herbicidal action ABUTH (Abutilon theophrasti; post-emergence, dosage 80 g/ha): 100%; herbicidal action PHBPU (Pharbitis purpurea; post-emergence, dosage 80 g/ha): 90%
Cc1c(C(=O)Nc2nnnn2C)ccc(C(F)F)c1C[S+](C)[O-] (stereo not drawn) [Example 1-108] | 100 | 100 | 80 | 90 | 100 | – | –
COc1c(C(=O)Nc2nnnn2C)ccc(C(F)(F)F)c1C[S+](C)[O-] (stereo not drawn) [Example 1-135] | 100 | 100 | 90 | 90 | 90 | – | –
CCSCc1c(C(F)(F)F)ccc(C(=O)Nc2nnnn2C)c1SCC [Example 1-182] | 100 | 90 | 90 | 90 | – | 100 | Herbicidal action against VERPE (Veronica persica; [1]): 100; Herbicidal action against AMARE (Amaranthus retroflexus; [1]): 80; Herbicidal action against ABUTH (Abutilon theophrasti; [1]): 70; Herbicidal action against VIOTR (Viola tricolor): 80
CSCc1c(C)ccc(C(=O)Nc2nnnn2C)c1Cl [Example 1-287] | 100 | 100 | 100 | – | 90 | – | herbicidal action ALOMY (Alopecurus myosuroides; Dosage 80 g/ha): 90
CCS(=O)(=O)Cc1c(C(F)F)ccc(C(=O)Nc2nnnn2C)c1Cl [Example 1-325] | 100 | – | 100 | 100 | – | 100 | herbicidal action ALOMY (Alopecurus myosuroides; Dosage 80 g/ha): 90
Cn1nnnc1NC(=O)c1ccc(I)c(CS(C)(=O)=O)c1Cl [Example 1-364] | 100 | 100 | 100 | – | – | 100 | herbicidal action ALOMY (Alopecurus myosuroides; Dosage 80 g/ha): 90
Cn1nnnc1NC(=O)c1ccc(C(F)(F)F)c(CS(C)(=O)=O)c1C(F)(F)C(F)(F)F [Example 1-552] | 100 | 90 | 90 | 100 | – | 100 | –
COc1c(C(=O)Nc2nnnn2C)ccc(Cl)c1CSC [Example 1-570] | – | – | – | – | 80 | – | Herbicidal action against VERPE (Veronica persica; post-emergence, dosage 80 g/ha): 90; Herbicidal action against AMARE (Amaranthus retroflexus; post-emergence, dosage 80 g/ha): 90; Herbicidal action against ABUTH (Abutilon theophrasti; post-emergence, dosage 80 g/ha): 90; Herbicidal action against PHBPU (Pharbitis purpurea; post-emergence, dosage 80 g/ha): 90; Herbicidal action against VIOTR (Viola tricolor): 70
CCn1nnnc1NC(=O)c1ccc(C(F)F)c(C[S+](C)[O-])c1SC (stereo not drawn) [Example 2-171] | 100 | 100 | 100 | 100 | – | 100 | –
CCn1nnnc1NC(=O)c1ccc(S(C)(=O)=O)c(CS(C)(=O)=O)c1Cl [Example 2-280] | – | – | – | – | 90 | – | Herbicidal action against VERPE (Veronica persica; post-emergence, dosage 80 g/ha): 80; Herbicidal action against AMARE (Amaranthus retroflexus; post-emergence, dosage 80 g/ha): 90; Herbicidal action against PHBPU (Pharbitis purpurea; post-emergence, dosage 80 g/ha): 90

Structure (SMILES) | herbicidal action VERPE (Veronica persica; Dosage 80 g/ha) | herbicidal action AMARE (Amaranthus retroflexus; Dosage 80 g/ha) | herbicidal action ABUTH (Abutilon theophrasti; Dosage 80 g/ha) | herbicidal action PHBPU (Pharbitis purpurea; Dosage 80 g/ha) | herbicidal action VIOTR (Viola tricolor) [%] | herbicidal activity VIOTR (Viola tricolor) [%] | other results
CCn1nnnc1NC(=O)c1ccc(C(F)(F)F)c(C[S+]([O-])CC2CC2)c1Cl (stereo not drawn) [Example 2-315] | 100 | 100 | 100 | 100 | – | 100 | –
CCCn1nnnc1NC(=O)c1ccc(S(C)(=O)=O)c(CSC)c1C [Example 3-37] | 100 | 100 | 80 | 80 | 100 | – | –
CCCn1nnnc1NC(=O)c1ccc(S(C)(=O)=O)c(CS(C)(=O)=O)c1C [Example 3-39] | 100 | 100 | 90 | 90 | 100 | – | –
CCCn1nnnc1NC(=O)c1ccc(C(F)(F)F)c(CSCC)c1C [Example 3-86] | 80 | – | 80 | 90 | 100 | – | –
CCCn1nnnc1NC(=O)c1ccc(C(F)(F)F)c(C[S+](C)[O-])c1OC (stereo not drawn) [Example 3-135] | – | 100 | 100 | 90 | 100 | – | –
CCCn1nnnc1NC(=O)c1ccc(C(F)(F)F)c(CSC)c1SC [Example 3-161] | 100 | 100 | 100 | 90 | 100 | – | –
CCCn1nnnc1NC(=O)c1ccc(C(F)F)c(CSC)c1SC [Example 3-170] | 90 | 100 | 100 | 90 | – | 100 | –
CCCn1nnnc1NC(=O)c1ccc(C(F)F)c(C[S+](C)[O-])c1SC (stereo not drawn) [Example 3-171] | 100 | 100 | 100 | 90 | – | 100 | –
CCCn1nnnc1NC(=O)c1ccc(C(F)F)c(CS(C)(=O)=O)c1SC [Example 3-172] | 100 | 100 | 100 | 100 | – | 100 | –
CCCn1nnnc1NC(=O)c1ccc(C(F)(F)F)c(CS(C)(=O)=O)c1Cl [Example 3-298] | 100 | 100 | 80 | 100 | – | 100 | –
CCCn1nnnc1NC(=O)c1ccc(C(F)(F)F)c(CS(=O)(=O)CC)c1Cl [Example 3-301] | 80 | – | 80 | 100 | 100 | – | –
CCCn1nnnc1NC(=O)c1ccc(C(F)F)c(CS(C)(=O)=O)c1Cl [Example 3-322] | 80 | 90 | 100 | 90 | – | 100 | –
CCCn1nnnc1NC(=O)c1ccc(C(F)F)c(CS(=O)(=O)CC)c1Cl [Example 3-325] | – | – | 100 | 90 | – | 100 | –
CCCn1nnnc1NC(=O)c1ccc(C(F)(F)F)c(CS(C)(=O)=O)c1Br [Example 3-382] | 90 | 100 | 100 | 100 | 90 | – | –
CCS(=O)(=O)c1c(C(F)(F)F)ccc(C(=O)Nc2nnnn2C)c1Br [Example V-13, 2-bromo-3-(ethylsulfonyl)-N-(1-methyl-1-1H-tetrazol-5-yl)-4-(trifluoromethyl)benzamide, reference compound] | – | – | – | – | – | – | Herbicidal action against VERPE (Veronica persica; [2]): 0; Herbicidal action against ALOMY (Alopecurus myosuroides; [2]): 0; Herbicidal action against AMARE (Amaranthus retroflexus; [2]): 0; Herbicidal action against PHBPU (Pharbitis purpurea; [2]): 0
